Data: article PMC4527730, “A Pan-GTPase Inhibitor as a Molecular Probe” (PLoS ONE, 2015)
Read-outs that look alike come from different tables or passages of the source.

How the values were obtained:
[1] = system: GTPases (H-Ras, H-Ras G12V, Cdc42, Cdc42 Q61L, Rac1, Rac1 Q61L, RhoA, Rab7); assay: Multiplex dose-response assay, statements across the GTPase panel; conditions: for inhibitory activity on BODIPY-FL GTP binding across all GTPases tested (in words): SAR versus compound 1
Experimental: (§1) Briefly, individual GST-GTPases were separately attached to glutathione microsphere beads that were labeled with varying intensity of red fluorescent dye, and subsequently combined. The buffer contains 30 mM HEPES (pH 7.2), 150 mM KCl, 20 mM NaCl, 0.1% BSA, 1 mM DTT, 1 mM EDTA and 0.1% NP-40. For Rho A and Rac1, 1 mM EDTA was replaced with 1 mM MgCl2 to stabilize the protein. […] To study whether the compounds are slow binders, BODIPY^- FL GTP was added either immediately or 2 h after compound addition. […] The curves were fitted to the sigmoidal dose-response equation using GraphPad Prism. Percent response was calculated as the ratio of (sample MCF–negative control MCF) / (positive control MCF–negative control MCF).

[2] = system: integrin VLA-4 on U937 FPRΔST cells; assay: Integrin activation assay (LDV-FITC binding); assay type: cell-based; conditions: LDV-FITC 4 nM, fMLFF 100 nM
Experimental: The procedure followed the protocols described previously. U937 FPRΔST cells (0.4~0.8 x 10^6 cells/mL) were continuously stirred with a magnetic stir bar at 500 rpm in a test tube. The fluorescence was recorded on a FACScan flow cytometer. The baseline fluorescence of the cells was established for 30 s. Then LDV-FITC at 4 nM was added. After the fluorescence stabilized at ~120 s, the chemotactic ligand fMLFF at 100 nM was added for stimulation. […] All the concentrations given were the final concentrations. The percent inhibition was calculated according to Equation 1 (Supporting Information).

Rac1 Q61L = Rac1 Q61L (Homo sapiens, UniProt P63000, Q61L); assay: Multiplex bead-based flow cytometry dose-response of fluorescent guanine nucleotide binding; conditions: read-out: EC50 Rac1 Q61L; BODIPY-FL GTP binding; 2 h at 4°C
H-Ras G12V = H-Ras G12V (Homo sapiens, UniProt P01112, G12V); assay: as above; conditions: read-out: EC50 H-Ras G12V; BODIPY-FL GTP binding; 2 h at 4°C
Chain of H-Ras G12V (P01112 whole entry G12V): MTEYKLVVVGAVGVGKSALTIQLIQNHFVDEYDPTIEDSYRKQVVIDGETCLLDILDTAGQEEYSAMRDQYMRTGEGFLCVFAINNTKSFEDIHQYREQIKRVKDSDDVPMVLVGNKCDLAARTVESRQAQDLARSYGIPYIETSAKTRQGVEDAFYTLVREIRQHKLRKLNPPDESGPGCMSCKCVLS
Experimental: (§2) Briefly, individual GST-GTPases were separately attached to glutathione microsphere beads that were labeled with varying intensity of red fluorescent dye, and subsequently combined. The buffer contains 30 mM HEPES (pH 7.2), 150 mM KCl, 20 mM NaCl, 0.1% BSA, 1 mM DTT, 1 mM EDTA and 0.1% NP-40. […] To study whether the compounds are slow binders, BODIPY^- FL GTP was added either immediately or 2 h after compound addition. […] The curves were fitted to the sigmoidal dose-response equation using GraphPad Prism. Percent response was calculated as the ratio of (sample MCF–negative control MCF) / (positive control MCF–negative control MCF).

Rac1 = Rac1 (Homo sapiens, UniProt P63000); assay: as above; conditions: read-out: EC50 Rac1; BODIPY-FL GTP binding; 2 h at 4°C; 1 mM MgCl2
Experimental: as §1

RhoA = RhoA (Homo sapiens, UniProt P61586); assay: as above; conditions: read-out: EC50 RhoA; BODIPY-FL GTP binding; 2 h at 4°C; 1 mM MgCl2
Chain of RhoA (P61586 whole entry): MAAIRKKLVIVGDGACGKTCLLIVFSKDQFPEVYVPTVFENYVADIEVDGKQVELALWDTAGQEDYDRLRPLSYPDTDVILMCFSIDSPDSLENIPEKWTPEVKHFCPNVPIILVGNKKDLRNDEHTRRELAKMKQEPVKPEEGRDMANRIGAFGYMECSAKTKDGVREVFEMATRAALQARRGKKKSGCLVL
Experimental: as §1

H-Ras = H-Ras (Homo sapiens, UniProt P01112); assay: as above; conditions: read-out: EC50 H-Ras; BODIPY-FL GTP binding; 2 h at 4°C
Chain of H-Ras (P01112 whole entry): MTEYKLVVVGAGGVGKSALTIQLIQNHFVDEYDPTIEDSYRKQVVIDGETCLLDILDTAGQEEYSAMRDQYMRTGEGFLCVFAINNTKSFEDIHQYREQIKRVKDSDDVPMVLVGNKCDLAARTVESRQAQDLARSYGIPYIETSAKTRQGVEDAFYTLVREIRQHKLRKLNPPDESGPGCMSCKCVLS
Experimental: as §2

Cdc42 = Cdc42 (Homo sapiens, UniProt P60953); assay: as above; conditions: read-out: EC50 Cdc42; BODIPY-FL GTP binding; 2 h at 4°C
Chain of Cdc42 (P60953 whole entry): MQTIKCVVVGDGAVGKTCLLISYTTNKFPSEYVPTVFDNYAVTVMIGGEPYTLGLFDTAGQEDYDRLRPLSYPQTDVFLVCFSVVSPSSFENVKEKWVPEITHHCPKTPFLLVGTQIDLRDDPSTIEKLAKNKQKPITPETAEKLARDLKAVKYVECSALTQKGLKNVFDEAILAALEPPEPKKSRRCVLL
Experimental: as §2

Cdc42 Q61L = Cdc42 Q61L (Homo sapiens, UniProt P60953, Q61L); assay: as above; conditions: read-out: EC50 Cdc42 Q61L; BODIPY-FL GTP binding; 2 h at 4°C
Chain of Cdc42 Q61L (P60953 whole entry Q61L): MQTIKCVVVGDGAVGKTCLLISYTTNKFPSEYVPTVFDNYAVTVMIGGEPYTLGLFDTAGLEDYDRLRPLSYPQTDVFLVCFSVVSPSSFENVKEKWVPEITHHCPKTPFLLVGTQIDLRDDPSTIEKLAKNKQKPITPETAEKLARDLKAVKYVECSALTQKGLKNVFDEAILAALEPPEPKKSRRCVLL
Experimental: as §2

Rab7 = Rab7 (Canis lupus familiaris, UniProt P18067); assay: as above; conditions: read-out: EC50 Rab7; BODIPY-FL GTP binding; 2 h at 4°C
Chain of Rab7 (P18067 2-207 limits assumed): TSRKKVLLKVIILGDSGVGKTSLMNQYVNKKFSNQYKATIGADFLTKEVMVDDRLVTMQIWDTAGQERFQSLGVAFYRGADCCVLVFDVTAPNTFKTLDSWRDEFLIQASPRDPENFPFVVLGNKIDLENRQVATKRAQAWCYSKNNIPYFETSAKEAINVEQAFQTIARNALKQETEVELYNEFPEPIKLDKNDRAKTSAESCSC
Experimental: as §2

[3] = system: integrin VLA-4 on U937 FPRΔST cells; set-up: method as in PMID 23382385; conditions: cited from earlier work
[4] = Solubility in PBS and assay media; assay type: physicochemical
Experimental: page 7: conclusion, the available data support the idea that compound CID1067700 has non-classical competitive character. […] Solubility was measured in phosphate buffered saline (PBS) at room temperature (23 °C). PBS by definition is 137 mM NaCl, 2.7 mM KCl, 10 mM sodium phosphate dibasic, 2 mM potassium phosphate [monobasic and a pH of 7.4. Detection was based on UV absorbance. […] Solubility was also assessed in the each of the four media used in the individual assays. […] Table 1S. […] Stability, depicted as closed circles in the graph, was assessed at room temperature (23 °C) in PBS (no antioxidants or other protectants and DMSO concentration below 0.1%). Stability data is depicted in Fig. S8 showing the loss of compound with time over a 48 h period with a minimum of 6 time points and providing the percent remaining compound at end of the 48 h period. Under these conditions, 77% of 1 remains after 48 hours. The degradation has not been further characterized.

| SMILES | EC50 (Rac1 Q61L) | EC50 (H-Ras G12V) | EC50 (Rac1) | EC50 (RhoA) | EC50 (H-Ras) | EC50 (Cdc42) | EC50 (Cdc42 Q61L) | loss in potency across all the GTPases ([1]; versus compound 1) | Solubility, Dose Response-buffer ([4]; 30mM HEPES, pH 7.5, 100mM KCl, 20mM NaCl, 0.01% (v/v) NP-40) | solubility ([4]; 30mM HEPES, pH 7.5, 100mM KCl, 20mM NaCl, 0.01% (v/v) NP-40, read-out: Solubility, Dose Response-buffer) | Solubility, EGFR degradation assay medium ([4]; DMEM/F-12) | solubility ([4]; DMEM/F-12, read-out: Solubility, EGFR degradation assay medium) | Solubility, LDV-FITC assay buffer ([4]; RPMI 1640 + 10% HI-FBS) | solubility ([4]; RPMI 1640 + 10% HI-FBS, read-out: Solubility, LDV-FITC assay buffer) | inhibitory activity on BODIPY-FL GTP binding across all GTPases tested (in words) [1] | integrin VLA-4 activation (LDV-FITC binding after fMLFF) [2] | EC50 (Rab7) | integrin activation [3] |
| --- | --- | --- | --- | --- | --- | --- | --- | --- | --- | --- | --- | --- | --- | --- | --- | --- | --- | --- |
| O=C(NC(=S)Nc1sc2c(c1C(=O)O)CCOC2)c1ccccc1 [Compound 3] | 230 ± 220 nM | 0.12 ± 0.12 µM | 180 ± 130 nM | 230 ± 210 nM | 0.17 ± 0.094 µM | 0.11 ± 0.064 µM | 0.13 ± 0.078 µM |  |  |  |  |  |  |  | did not cause a significant change in potency | dose-dependently blocked integrin activation |  |  |
| CC1(C)Cc2c(sc(NC(=O)Cc3ccccc3)c2C(=O)O)CO1 [Compound 4] |  | > 1000 µM |  |  | > 1000 µM | > 1000 µM | > 1000 µM |  |  |  |  |  |  |  | inactive |  | > 1000 µM |  |
| COC(=O)c1c(NC(=S)NC(=O)c2ccccc2)sc2c1CC(C)(C)OC2 [Compound 2] |  | > 1000 µM |  |  | > 1000 µM | > 1000 µM | > 1000 µM |  |  |  |  |  |  |  | loss of activity |  | > 1000 µM |  |
| COc1ccc(C2CC(c3ccccc3)=NN2c2ccc(S(N)(=O)=O)cc2)cc1 (stereo not shown) [CID2950007] |  |  |  |  |  |  |  |  |  |  |  |  |  |  |  |  |  | decrease the integrin activation in a dose-dependent fashion |
| CC1(C)Cc2c(sc(NC(=S)Nc3ccccc3)c2C(=O)O)CO1 [Compound 5] |  |  |  |  |  |  |  |  |  |  |  |  |  |  | inactive |  |  |  |

Now from value to molecule, other results behind:

| EC50 (Rac1 Q61L) | EC50 (H-Ras G12V) | EC50 (Rac1) | EC50 (RhoA) | EC50 (H-Ras) | EC50 (Cdc42) | EC50 (Cdc42 Q61L) | loss in potency across all the GTPases ([1]; versus compound 1) | Solubility, Dose Response-buffer ([4]; 30mM HEPES, pH 7.5, 100mM KCl, 20mM NaCl, 0.01% (v/v) NP-40) | solubility ([4]; 30mM HEPES, pH 7.5, 100mM KCl, 20mM NaCl, 0.01% (v/v) NP-40, read-out: Solubility, Dose Response-buffer) | Solubility, EGFR degradation assay medium ([4]; DMEM/F-12) | solubility ([4]; DMEM/F-12, read-out: Solubility, EGFR degradation assay medium) | Solubility, LDV-FITC assay buffer ([4]; RPMI 1640 + 10% HI-FBS) | solubility ([4]; RPMI 1640 + 10% HI-FBS, read-out: Solubility, LDV-FITC assay buffer) | SMILES | inhibitory activity on BODIPY-FL GTP binding across all GTPases tested (in words) [1] | integrin VLA-4 activation (LDV-FITC binding after fMLFF) [2] | EC50 (Rab7) | integrin activation [3] |
| --- | --- | --- | --- | --- | --- | --- | --- | --- | --- | --- | --- | --- | --- | --- | --- | --- | --- | --- |
| 400 ± 20 nM | 0.49 ± 0.48 µM | 350 ± 50 nM | 330 ± 30 nM | 0.44 ± 0.41 µM | 17 µM | 0.47 µM | more than 2 fold |  |  |  |  |  |  | CC1(C)Cc2c(sc(NC(=O)NC(=O)c3ccccc3)c2C(=O)O)CO1 [Compound 6] |  |  | 0.31 ± 0.09 µM |  |
| 420 ± 650 nM | 0.43 ± 0.68 µM | 600 ± 800 nM | 480 ± 740 nM | 0.62 ± 1 µM | 46.8 ± 66 µM | 14.8 ± 20.8 µM |  | > 93 µg/mL | > 198 µM | > 93 µg/mL | > 198 µM | > 93 µg/mL | > 198 µM | CC1(C)Cc2c(sc(NC(=S)NC(=O)c3ccccc3Br)c2C(=O)O)CO1 [Compound 10] |  |  | 0.43 ± 0.68 µM |  |
